Assay results as given in US20170050957A1, “4-AMINO-6-(HETEROCYCLIC)PICOLINATES AND 6-AMINO-2-(HETEROCYCLIC)PYRIMIDINE-4-CARBOXYLATES AND THEIR USE AS HERBICIDES” (Dow AgroSciences LLC, priority 2013, published 2017).

Tested on: Wheat and Barley and test plant species
Assay: Post-emergent Test III, herbicidal activity in wheat and barley (Table 17; visual injury, GR20/GR50/GR80/GR90)
Assay type: in vivo
Settings: 21 d; for Visual Growth Reduction (%) 21 Days After Application, CIRAR / Visual Growth Reduction (%) 21 Days After Application, GALAP / Visual Growth Reduction (%) 21 Days After Application, HORVS / Visual Growth Reduction (%) 21 Days After Application, KCHSC / Visual Growth Reduction (%) 21 Days After Application, LAMPU / Visual Growth Reduction (%) 21 Days After Application, MATCH / Visual Growth Reduction (%) 21 Days After Application, PAPRH / Visual Growth Reduction (%) 21 Days After Application, SASKR / Visual Growth Reduction (%) 21 Days After Application, SINAR / Visual Growth Reduction (%) 21 Days After Application, TRZAS / Visual Growth Reduction (%) 21 Days After Application, VERPE / Visual Growth Reduction (%) 21 Days After Application, VIOTR: post-emergent
Experimental: Post-emergent Test III. Seeds of the desired test plant species were planted in Sun Gro MetroMix® 306 planting mixture, which typically has a pH of 6.0 to 6.8 and an organic matter content of about 30 percent, in plastic pots with a surface area of 103.2 square centimeters (cm^2). When required to ensure good germination and healthy plants, a fungicide treatment and/or other chemical or physical treatment was applied. The plants were grown for 7-36 days (d) in a greenhouse with an approximate 14 hour (h) photoperiod which was maintained at about 18° C. during the day and 17° C. during the night. Nutrients and water were added on a regular basis and supplemental lighting was provided with overhead metal halide 1000-Watt lamps as necessary. The plants were employed for testing when they reached the second or third true leaf stage.
A weighed amount, determined by the highest rate to be tested, of each test compound was placed in a 25 mL glass vial and was dissolved in 4 mL of a 97:3 v/v mixture of acetone and DMSO to obtain concentrated stock solutions. […] The concentrated stock solutions obtained were diluted with 20 mL of an aqueous mixture containing acetone, water, isopropyl alcohol, DMSO, Agri-Dex crop oil concentrate, and X-77 surfactant in a 48:39:10:1.5:1.5:0.02 v/v ratio to obtain spray solutions containing the highest application rates. Additional application rates were obtained by serial dilution of 12 mL of the high rate solution into a solution containing 2 mL of 97:3 v/v mixture of acetone and DMSO and 10 mL of an aqueous mixture containing acetone, water, isopropyl alcohol, DMSO, Agri-Dex crop oil concentrate, and X-77 surfactant in a 48:39:10:1.5:1.5:0.02 v/v ratio to obtain 1/2×, 1/4×, 1/8× and 1/16× rates of the high rate. Compound requirements are based upon a 12 mL application volume at a rate of 187 liters per hectare (L/ha). Formulated compounds were applied to the plant material with an overhead Mandel track sprayer equipped with 8002E nozzles calibrated to deliver 187 L/ha over an application area of 0.503 square meters at a spray height of 18 inches (43 cm) above the average plant canopy height. Control plants were sprayed in the same manner with the solvent blank.
The treated plants and control plants were placed in a greenhouse as described above and watered by subirrigation to prevent wash-off of the test compounds. After 21 d, the condition of the test plants as compared with that of the untreated plants was determined visually and scored on a scale of 0 to 100 percent where 0 corresponds to no injury and 100 corresponds to complete kill. By applying the well-accepted probit analysis as described by J. Berkson in Journal of the American Statistical […], 48, 565 (1953) and by D. Finney in “Probit Analysis” Cambridge University Press (1952), the above data can be used to calculate GR20, GR50, GR80 and GR90 values, which are defined as growth reduction factors that correspond to the effective dose of herbicide required to kill or control 20 percent, 50 percent, 80 percent or 90 percent, respectively, of a target plant.

## COC(=O)c1nc(-c2ccc3cc[nH]c3c2F)c(F)c(N)c1Cl [Compound 1.15, Methyl 4-amino-3-chloro-5-fluoro-6-(7-fluoro-1H-indol-6-yl)picolinate]
CIRAR, 17.5 g ai/ha
  Visual Growth Reduction (%) 21 Days After Application, CIRAR: F (30-44)
CIRAR, 35 g ai/ha
  Visual Growth Reduction (%) 21 Days After Application, CIRAR: D (60-74)
CIRAR, 70 g ai/ha
  Visual Growth Reduction (%) 21 Days After Application, CIRAR: C (75-84)
CIRAR, dose for 50 percent growth reduction, probit analysis
  GR50, CIRAR: 30 g ai/ha
CIRAR, dose for 80 percent growth reduction, probit analysis
  GR80, CIRAR: 70 g ai/ha
CIRAR, dose for 90 percent growth reduction, probit analysis
  GR90, CIRAR: 109 g ai/ha
GALAP, 17.5 g ai/ha
  Visual Growth Reduction (%) 21 Days After Application, GALAP: D (60-74)
GALAP, 35 g ai/ha
  Visual Growth Reduction (%) 21 Days After Application, GALAP: B (85-94)
GALAP, 70 g ai/ha
  Visual Growth Reduction (%) 21 Days After Application, GALAP: A (95-100)
GALAP, dose for 50 percent growth reduction, probit analysis
  GR50, GALAP: 9 g ai/ha
GALAP, dose for 80 percent growth reduction, probit analysis
  GR80, GALAP: 23 g ai/ha
GALAP, dose for 90 percent growth reduction, probit analysis
  GR90, GALAP: 37 g ai/ha
HORVS, 17.5 g ai/ha
  Visual Growth Reduction (%) 21 Days After Application, HORVS: F (30-44)
HORVS, 35 g ai/ha
  Visual Growth Reduction (%) 21 Days After Application, HORVS: E (45-59)
HORVS, 70 g ai/ha
  Visual Growth Reduction (%) 21 Days After Application, HORVS: E (45-59)
HORVS, dose for 20 percent growth reduction, probit analysis
  GR20, HORVS: 8 g ai/ha
KCHSC, 17.5 g ai/ha
  Visual Growth Reduction (%) 21 Days After Application, KCHSC: D (60-74)
KCHSC, 35 g ai/ha
  Visual Growth Reduction (%) 21 Days After Application, KCHSC: B (85-94)
KCHSC, 70 g ai/ha
  Visual Growth Reduction (%) 21 Days After Application, KCHSC: B (85-94)
KCHSC, dose for 50 percent growth reduction, probit analysis
  GR50, KCHSC: 6 g ai/ha
KCHSC, dose for 80 percent growth reduction, probit analysis
  GR80, KCHSC: 28 g ai/ha
KCHSC, dose for 90 percent growth reduction, probit analysis
  GR90, KCHSC: 67 g ai/ha
LAMPU, 17.5 g ai/ha
  Visual Growth Reduction (%) 21 Days After Application, LAMPU: A (95-100)
LAMPU, 35 g ai/ha
  Visual Growth Reduction (%) 21 Days After Application, LAMPU: A (95-100)
LAMPU, 70 g ai/ha
  Visual Growth Reduction (%) 21 Days After Application, LAMPU: A (95-100)
LAMPU, dose for 50 percent growth reduction, probit analysis
  GR50, LAMPU: 0.10 g ai/ha
LAMPU, dose for 80 percent growth reduction, probit analysis
  GR80, LAMPU: 1 g ai/ha
LAMPU, dose for 90 percent growth reduction, probit analysis
  GR90, LAMPU: 2 g ai/ha
MATCH, 17.5 g ai/ha
  Visual Growth Reduction (%) 21 Days After Application, MATCH: F (30-44)
MATCH, 35 g ai/ha
  Visual Growth Reduction (%) 21 Days After Application, MATCH: E (45-59)
MATCH, 70 g ai/ha
  Visual Growth Reduction (%) 21 Days After Application, MATCH: D (60-74)
MATCH, dose for 50 percent growth reduction, probit analysis
  GR50, MATCH: 45 g ai/ha
MATCH, dose for 80 percent growth reduction, probit analysis
  GR80, MATCH: >140 g ai/ha
MATCH, dose for 90 percent growth reduction, probit analysis
  GR90, MATCH: >140 g ai/ha
PAPRH, 17.5 g ai/ha
  Visual Growth Reduction (%) 21 Days After Application, PAPRH: A (95-100)
PAPRH, 35 g ai/ha
  Visual Growth Reduction (%) 21 Days After Application, PAPRH: A (95-100)
PAPRH, 70 g ai/ha
  Visual Growth Reduction (%) 21 Days After Application, PAPRH: A (95-100)
PAPRH, dose for 50 percent growth reduction, probit analysis
  GR50, PAPRH: 0.06 g ai/ha
PAPRH, dose for 80 percent growth reduction, probit analysis
  GR80, PAPRH: 1 g ai/ha
PAPRH, dose for 90 percent growth reduction, probit analysis
  GR90, PAPRH: 2 g ai/ha
SASKR, 17.5 g ai/ha
  Visual Growth Reduction (%) 21 Days After Application, SASKR: C (75-84)
SASKR, 35 g ai/ha
  Visual Growth Reduction (%) 21 Days After Application, SASKR: C (75-84)
SASKR, 70 g ai/ha
  Visual Growth Reduction (%) 21 Days After Application, SASKR: B (85-94)
SASKR, dose for 50 percent growth reduction, probit analysis
  GR50, SASKR: 7 g ai/ha
SASKR, dose for 80 percent growth reduction, probit analysis
  GR80, SASKR: 30 g ai/ha
SASKR, dose for 90 percent growth reduction, probit analysis
  GR90, SASKR: 95 g ai/ha
SINAR, 17.5 g ai/ha
  Visual Growth Reduction (%) 21 Days After Application, SINAR: A (95-100)
SINAR, 35 g ai/ha
  Visual Growth Reduction (%) 21 Days After Application, SINAR: A (95-100)
SINAR, 70 g ai/ha
  Visual Growth Reduction (%) 21 Days After Application, SINAR: A (95-100)
SINAR, dose for 50 percent growth reduction, probit analysis
  GR50, SINAR: 4 g ai/ha
SINAR, dose for 80 percent growth reduction, probit analysis
  GR80, SINAR: 8 g ai/ha
SINAR, dose for 90 percent growth reduction, probit analysis
  GR90, SINAR: 12 g ai/ha
TRZAS, 17.5 g ai/ha
  Visual Growth Reduction (%) 21 Days After Application, TRZAS: F (30-44)
TRZAS, 35 g ai/ha
  Visual Growth Reduction (%) 21 Days After Application, TRZAS: E (45-59)
TRZAS, 70 g ai/ha
  Visual Growth Reduction (%) 21 Days After Application, TRZAS: D (60-74)
TRZAS, dose for 20 percent growth reduction, probit analysis
  GR20, TRZAS: 13 g ai/ha
VERPE, 17.5 g ai/ha
  Visual Growth Reduction (%) 21 Days After Application, VERPE: A (95-100)
VERPE, 35 g ai/ha
  Visual Growth Reduction (%) 21 Days After Application, VERPE: A (95-100)
VERPE, 70 g ai/ha
  Visual Growth Reduction (%) 21 Days After Application, VERPE: A (95-100)
VERPE, dose for 50 percent growth reduction, probit analysis
  GR50, VERPE: 0.28 g ai/ha
VERPE, dose for 80 percent growth reduction, probit analysis
  GR80, VERPE: 2 g ai/ha
VERPE, dose for 90 percent growth reduction, probit analysis
  GR90, VERPE: 6 g ai/ha
VIOTR, 17.5 g ai/ha
  Visual Growth Reduction (%) 21 Days After Application, VIOTR: E (45-59)
VIOTR, 35 g ai/ha
  Visual Growth Reduction (%) 21 Days After Application, VIOTR: D (60-74)
VIOTR, 70 g ai/ha
  Visual Growth Reduction (%) 21 Days After Application, VIOTR: C (75-84)
VIOTR, dose for 50 percent growth reduction, probit analysis
  GR50, VIOTR: 22 g ai/ha
VIOTR, dose for 80 percent growth reduction, probit analysis
  GR80, VIOTR: 63 g ai/ha
VIOTR, dose for 90 percent growth reduction, probit analysis
  GR90, VIOTR: 111 g ai/ha
